Results: US9682930B2, “Rheumatoid arthritis treatment” (Avexxin AS, priority 2011, dated 2017)
pIC50: −log10 of the molar value. Entries after “also recorded” stand apart in the source; their conditions may differ.

Key:
[1] = test system: PGE2 production in SW982 cells; assay: TNF induced PGE2 production in SW982 cells (EIA/ELISA); format: cell-based; conditions: for Fold change 1 (PGE2) / Fold change 2 (PGE2) / Mean fold change (PGE2): relative to Ctrl
Protocol: PGE2 production was monitored by ELISA. Those cells receiving treatment underwent reincubation (prior to stimulation) with either Compound 1 (AVX001) or Compound 2 (AVX002) for 2 hours.
FIGS. 3A and 3B show the determination of IC50 values for Compound 1 and Compound 2 inhibition of TNF induced PGE2 production in SW982 cells. […] corresponds to the PGE2 level induced with TNFα in combination with ethanol after incubation for 24 hours.
(§1) The Cell Culture SW982 model cell line at a confluent or spheroid state (Wada Y, 2005) was used since gene expression and generation of proinflammatory cytokines resemble RA-derived synovial fibroblast-like cells.
(§2) For stimulation experiments 0.5 mL of a cell suspension (5-7×10^5 cells/mL) were seeded inside the inner wells of 48-well plates. The outer wells were filled with 0.5 mL PBS. For nearly confluent populations, cells were incubated for one day (37° C., 5% CO2). In order to yield post-confluent cells, plates were left in the incubator for 3 days. After this incubation time, 300 μL of the supernatant was removed and replaced by 50 μL of stimulation medium.
(§3) Inhibition was performed in a similar manner as the stimulation. After seeding, incubation and replacement of the medium by 200 μL 0.5% FBS in DMEM, 50 μL of the particular inhibitor solution was added (Table 1). After 2 hours at 37° C., 50 μL of the supernatant was removed and replaced by the three stimulants described above.
Samples and controls were slowly thawed and diluted (between 1:1 and 1:2500) in the standard diluent. The maximal dilution was 1:10 for one step. That is why several intermediate dilutions were prepared. In the beginning all values were determined from duplicates. After having minimized technical errors, samples were only analyzed as individuals. All further steps, except for some minor corrections, were performed according to the manufacturer's recommendations as can be found in the manual of the EIA kit. In order to optimize the results, the incubation time of the alkaline phosphatase substrate was prolonged by 15 minutes. During the incubation, the plates were kept in the dark. An example of the arrangements of the samples and controls is illustrated in the appendix. The read-out was carried out with a Multiscan plate reader (Ascent Labsystems) at wavelengths of 414 and 595 nm after 10 seconds shaking at 120 rpm. The corresponding software to obtain the data was the Ascent software for Multiscan, Version 2.4.1.
SW982 cells were stimulated with TNF for various lengths ranging from 12-48 hours.

[2] = test system: arachidonic acid (AA) release in SW982 cells; assay: TNF-induced arachidonic acid (AA) release in SW982 cells; format: cell-based
Protocol: as §1, §2, §3
We evaluted inhibition in SW982 cells by analyzing arachidonic acid (AA) release in response to TNF with or without inhibitor pre-treatment. […] The inhibitory effect of Compound 2 was compared to that of ATK and SB203580 (FIG. 1b).

[3] = test system: ESE-1 mRNA expression in SW982 cells; assay: TNF-induced ESE-1 mRNA expression in postconfluent SW982 cells; format: cell-based; conditions: 2 hours preincubation, 6 hours 10 ng/ml TNF
Protocol: The cells were starved in 0% FCS-DMEM overnight before experimental treatment consisting of 2 hours preincubation of inhibitors followed by 6 hours stimulation with 10 ng/ml TNF
As a control, the NF-kB inhibitor BAY-7082 is included.

[4] = test system: IL-8 expression in SW982 cells; assay: Quantitative RT-PCR of IL-8 expression in TNF stimulated SW982 cells; format: cell-based; conditions: TNF 24 hrs
Protocol: (§4) The expression of COX2, MMP and IL-8, both known to be central in inflammation and/or joint destruction was evaluated by quantiative RT-PCR. SW 982 cells were seeded at a density of 0.1×10^6 cells/well in a 6-well format and then serum-starved after reaching 2-days post confluency. Cells were preincubated with or without inhibitors for 2 hrs prior to treatment in absence or presence of TNF for 24 hrs. The fold-difference in expression of target inflammatory genes relative to an endogenous control (GAPDH) was determined using ΔΔCt method (ΔΔCt=Cttarget−CtGAPDHt)treated−(Cttarget−CtGAPDH)untreated. Mean±SD of 3 separate experiments.

[5] = test system: COX2 expression in SW982 cells; assay: Quantitative RT-PCR of COX2 expression in TNF stimulated SW982 cells; format: cell-based; conditions: TNF 24 hrs
Protocol: as §4

[6] = test system: MMP3 expression in SW982 cells; assay: Quantitative RT-PCR of MMP expression in TNF stimulated SW982 cells; format: cell-based; conditions: 2 hrs preincubation, TNF 24 hrs
Protocol: as §4

[7] = test system: collagen-induced arthritis; assay: Mouse model of collagen-induced arthritis (CIA), arthritis index; format: in vivo, male DBA/1 mice; conditions: CIA mice, treatment from Day 28 for 14 days, FIG. 7
Protocol: CIA was induced in male DBA/1 mice (except naive group) by immunization with 0.1 mL emulsion containing an equal volume of bovine collagen solution (2 mg/mL) and Freund's Complete Adjuvant antigen solution at the tail base. The first injection was given on Day 0 and the second injection as booster was given on Day 21. Treatment was started on Day 28 and continued for 14 days.

[8] = SW982 cells, 2 hrs preincubation, n = 3
[9] = relative to GAPDH, ΔΔCt, n = 3, mean +/- SD

Question: For CCCCC/C=C\C/C=C\C/C=C\C/C=C\CCCC(=O)C(F)(F)F [ATK, reference compound], which “Effect on PGE2 production in response to TNF stimulation” value ([1]; SW982 cells) is on record?
Answer: reduced PGE2 production to basal levels

Question: How did the pIC50 ([2]; TNF 10 ng/ml, inhibitor pre-treatment, read-out: IC50 for reduction of TNF-induced release of AA) turn out when CC/C=C\C/C=C\C/C=C\C/C=C\C/C=C\CCSCC(=O)C(F)(F)F [Compound 2] was run?
Answer: ~6.00

Question: What about the “Effect on AA release” value ([2]; TNF-induced) of the same molecule?
Answer: normalizes AA-release to basal level

Question: And the “% Inhibition (PGE2)” value ([1]; 5 uM inhibitor + TNF)?
Answer: 107.3%

Question: What about the “Mean PGE2” value ([1]; 5 uM inhibitor + TNF) of the same molecule?
Answer: 87.5

Question: And the “Fold change 1 (PGE2)” value ([1]; 5 uM inhibitor + TNF)?
Answer: 0.64

Question: What about the “Fold change 2 (PGE2)” value ([1]; 5 uM inhibitor + TNF) of the same molecule?
Answer: 0.30

Question: What about the “Mean fold change (PGE2)” value ([1]; 5 uM inhibitor + TNF) of the same molecule?
Answer: 0.47

Question: What about the “% Inhibition (PGE2)” value ([1]; 10 uM inhibitor + TNF) of the same molecule?
Answer: 103.7%

Question: What about the “Mean PGE2” value ([1]; 10 uM inhibitor + TNF) of the same molecule?
Answer: 147.5

Question: What about the “Fold change 1 (PGE2)” value ([1]; 10 uM inhibitor + TNF) of the same molecule?
Answer: 1.34

Question: And the “Fold change 2 (PGE2)” value ([1]; 10 uM inhibitor + TNF)?
Answer: 0.38

Question: What about the “Mean fold change (PGE2)” value ([1]; 10 uM inhibitor + TNF) of the same molecule?
Answer: 0.86

Question: And the “Effect on PGE2 production in response to TNF stimulation” value ([1]; SW982 cells)?
Answer: reduced PGE2 production to basal levels

Question: What about the pIC50 ([1]; SW982 cells, FIG. 3, read-out: IC50 for inhibition of TNF induced PGE2 production) of the same molecule?
Answer: ~6.37

Question: What about the “Regulation of TNF-induced ESE-1 expression” value [3] of the same molecule?
Answer: in a dose dependent manner; also recorded: similar, if not better, regulation of ESE-1 expression than the known NF-kB inhibitor BAY-7082

Question: What about the “% Inhibition of induction of IL-8 message” value [4, 8] of the same molecule?
Answer: 53.49%

Question: What about the “Average fold induction of IL-8 transcript, Compound 2/TNF” value [4, 9] of the same molecule?
Answer: 39.21 +/− 10.76

Question: What about the “% Inhibition of induction of COX2 message” value [5, 8] of the same molecule?
Answer: 42.22%

Question: And the “Average fold induction of COX2 transcript, Compound 2/TNF” value [5, 9]?
Answer: 5.40 +/− 4.32

Question: What about the “% Inhibition of induction of MMP3 message” value [6] of the same molecule?
Answer: ~58%

Question: What about the “Reduction of arthritis index (AI)” value [7] of the same molecule?
Answer: More Effective than ENBREL® (Etanercept) in Reducing an Arthritis Index

Question: What does the source list for C[S+]([O-])c1ccc(-c2nc(-c3ccncc3)c(-c3ccc(F)cc3)[nH]2)cc1 (centres unmarked) [SB203580, reference compound]?
Answer: Mean PGE2 ([1]; 10 uM inhibitor + TNF): 25.6; Fold change 1 (PGE2) ([1]; 10 uM inhibitor + TNF): 0.18; Fold change 2 (PGE2) ([1]; 10 uM inhibitor + TNF): 0.09; Mean fold change (PGE2) ([1]; 10 uM inhibitor + TNF): 0.14; inhibition at 10 µM ([1]; Homo sapiens, SW982, 10 uM inhibitor + TNF): 111%; Effect on PGE2 production in response to TNF stimulation ([1]; SW982 cells): depleted PGE2 levels to below basal release

Question: COc1ccc2c(c1)c(CC(=O)O)c(C)n2C(=O)c1ccc(Cl)cc1 [indomethasin, reference compound] was tested. Which “Regulation of TNF-induced ESE-1 expression” value [3] did it give?
Answer: poorer regulation of TNF induced ESE-1 expression than the control
